Data on 28 compounds can be found in US20250230138A1, “COMPOUNDS HAVING A T-STRUCTURE FORMED BY AT LEAST FOUR CYCLES FOR USE IN THE TREATMENT OF CANCER AND OTHER INDICATIONS” (TheRas, Inc., priority 2022, published 2025).

The subject of one assay is pAKT in BT474 cells. The experiment in a line: Cell-based pAKT HTRF assay in BT474 cells. The following applies: BT474 cells, 4 hr incubation, read-out: pAKT inhibition IC50 in BT474 cells. The gist of the method:
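Compound titration: 3 μM downward in 3-fold steps, nine points, 4 hr on cells. Detection: lysis, then d2 plus Eu Cryptate antibody mix, room-temperature incubation of 4–24 h, and time-resolved fluorescence read at 615 nm.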
On the technique in general: TR-FRET usually uses a lanthanide donor and a delayed reading to cut background.

In assay [1] the target is Cys242 in human PIK3CA (157-299) (Homo sapiens (Human), UniProt P42336). Nature of the assay: Covalent modification assay using MALDI-TOF MS. Conditions: 4 h reaction time point. Type of assay: biochemical. An outline of the steps:
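PIK3CA (157-299), 3.33 or 1 μM in 20 mM HEPES, 150 mM NaCl, 2 mM MgCl2, pH 7.3, was incubated with compound at room temperature in the dark for 15 min, 30 min, 2 h or 4 h. Linear MALDI-TOF read-out; % modification = adduct peak height over summed heights of all protein species.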

The mark [2] stands for this setting: 1 μM protein target, 1:5 protein to compound ratio (compounds 853-1279).
Setting [3] is: 3.33 μM protein target, 1:7.5 protein to compound ratio (compounds 1-852).

The structures appear in SMILES notation. Like-named read-outs stand apart in the source and are kept apart here.

In general, IC50 refers to the concentration that gives 50% inhibition.

Chain of Cys242 in human PIK3CA (157-299) (P42336 157-299): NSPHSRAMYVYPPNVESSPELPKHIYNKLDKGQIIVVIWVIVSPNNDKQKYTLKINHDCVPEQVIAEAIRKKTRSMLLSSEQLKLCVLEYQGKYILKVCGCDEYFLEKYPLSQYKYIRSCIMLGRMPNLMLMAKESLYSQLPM

On to `C=CC(=O)N1CCn2nc(-c3nc(-c4ccc5cnncc5c4)c4ccsc4c3-c3c(F)cc(F)cc3OC[C@@H](C)O)cc2[C@H]1C` [Compound 895], for which, in the assay on pAKT in BT474 cells (Compounds 10-999), the 50% inhibitory concentration (IC50) was < 100 nM. Moreover, the “% of modification” value in assay [1] (setting [2]) is “A (percent of modification of PIK3CA protein ≥75%)”.
Take `C=CC(=O)N1CCc2nc(-c3nc(-c4ccc5c(c4)CCNC5)c4ccsc4c3-c3ccc(F)cc3OCCO)sc2C1` [Compound 130]: the 50% inhibitory concentration (IC50) with pAKT in BT474 cells (Compounds 10-999) was < 100 nM. In addition, the “% of modification” value in assay [1] (setting [3]) is on record as “A (percent of modification of PIK3CA protein ≥75%)”.
Taken in the same sequence, the figures for `C=CC(=O)N1CCc2nc(-c3nc(-c4ccc5c(c4)CS(=O)(=O)C5)c4ccsc4c3-c3ccc(F)cc3OCCOC)sc2C1` [Compound 116] were < 100 nM and “A (percent of modification of PIK3CA protein ≥75%)”.
Take `C=CC(=O)N1CCn2nc(-c3nc(-c4ccc5nn(C)cc5c4)c4ccsc4c3-c3c(F)cc(F)cc3OCCO)cc2[C@@H]1C` [Compound 644]: in the assay on pAKT in BT474 cells (Compounds 10-999), the half-inhibitory concentration (IC50) is < 100 nM. In assay [1] (setting [3]), the “% of modification” value was “A (percent of modification of PIK3CA protein ≥75%)”.
The corresponding values for `C=CC(=O)N1CCc2nc(-c3nc(-c4ccc5c(c4)CCNC5)c4ccsc4c3-c3c(F)cc(F)cc3OCC)sc2C1` [Compound 430] are 100 to 1000 nM and “A (percent of modification of PIK3CA protein ≥75%)”.
The corresponding values for `C=CC(=O)N1CCn2nc(-c3nc(-c4ccc5cnn(C)c5c4)c4ccsc4c3-c3c(F)cc(F)cc3OCCO)cc2[C@H]1C` [Compound 776] are < 100 nM and “A (percent of modification of PIK3CA protein ≥75%)”.
Taken in the same sequence, the figures for `C=CC(=O)N1Cc2cc(-c3nc(-c4ccc5c(c4)CCN(C)C5)c4ccsc4c3-c3c(F)cc(F)cc3OCCO)nn2[C@@H](C)C1` [Compound 564] were 100 to 1000 nM and “D (percent of modification <25%)”.
As for `C=CC(=O)N1CCc2ncc(-c3nc(-c4ccn(C)c(=O)c4)c4ccsc4c3-c3c(F)cc(F)cc3OC(C)C)cc2C1` [Compound 336], the IC50 with pAKT in BT474 cells (Compounds 10-999) is < 100 nM. The “% of modification” value in assay [1] (setting [3]) is given as “A (percent of modification of PIK3CA protein ≥75%)”.
The corresponding values for `C=CC(=O)N1Cc2cc(-c3nc(-c4ccc5oc(C)nc5c4)c4ccsc4c3-c3c(F)cc(F)cc3OCC(C)O)nn2C(C)C1` (centres unmarked) [Compound 683] are < 100 nM and “A (percent of modification of PIK3CA protein ≥75%)”.
Taken in the same sequence, the figures for `C=CC(=O)N1Cc2cc(-c3nc(-c4ccc5c(c4)CCN(C)C5)c4ccsc4c3-c3c(F)cc(F)cc3OC)nn2[C@@H](C)C1` [Compound 562] were 100 to 1000 nM and “C (25%≤percent of modification <50%)”.
Regarding `C=CC(=O)N1Cc2cc(-c3nc(-c4cn(C)cn4)c4ccsc4c3-c3c(F)cc(F)cc3OC)nn2C[C@H]1C` [Compound 843], the IC50 in the assay on pAKT in BT474 cells (Compounds 10-999) is < 100 nM. Besides, the “% of modification” value in assay [1] (setting [3]) is given as “A (percent of modification of PIK3CA protein ≥75%)”.
The corresponding values for `C=CC(=O)N1CCn2nc(-c3nc(-c4ccc5cnn(C)c5c4)c4ccsc4c3-c3c(F)cc(F)cc3OCC(C)O)cc2C1C` (centres unmarked) [Compound 769] are < 100 nM and “A (percent of modification of PIK3CA protein ≥75%)”.
Take `C=CC(=O)N1CCn2nc(-c3nc(-c4ccc5c(cnn5CCN(C)C)c4)c4ccsc4c3-c3c(F)cc(F)cc3OCCOC)cc2C1C` (centres unmarked) [Compound 1105]: the 50% inhibitory concentration (IC50) in the assay on pAKT in BT474 cells (Compounds 1000-1279) was < 100 nM. In addition, the “% of modification” value in assay [1] (setting [2]) was “A (percent of modification of PIK3CA protein ≥75%)”.
Taken in the same sequence, the figures for `C=CC(=O)N1CCc2nc(-c3nc(-c4ccc5c(c4)CNC5=O)c4ccsc4c3-c3c(F)cc(F)cc3OCCO)sc2C1` [Compound 1052] were < 100 nM and “A (percent of modification of PIK3CA protein ≥75%)”.
As to `C=CC(=O)N1CCn2nc(-c3nc(-c4ccc(=O)n(CC(F)F)c4)c4ccsc4c3-c3c(F)cc(F)cc3OCCOC)cc2C1C` (centres unmarked) [Compound 988], in the assay with pAKT in BT474 cells (Compounds 10-999), the half-inhibitory concentration (IC50) was < 100 nM. The “% of modification” value in assay [1] (setting [2]) was “A (percent of modification of PIK3CA protein ≥75%)”.
Consider `C=CC(=O)N1Cc2cc(-c3nc(-c4ccc5c(c4)CCN(C)C5)c4ccsc4c3-c3c(F)cc(F)cc3OCCOC)nn2C(C)C1` (centres unmarked) [Compound 558], for which, in the assay with pAKT in BT474 cells (Compounds 10-999), the 50% inhibitory concentration (IC50) lay within 100 to 1000 nM. The “% of modification” value in assay [1] (setting [3]) is recorded as “D (percent of modification <25%)”.
Taken in the same sequence, the figures for `C=CC(=O)N1CCn2nc(-c3nc(-c4cnn(C)c4)c4ccsc4c3-c3c(F)cc(F)cc3OCC(C)O)cc2C1C` (centres unmarked) [Compound 551] were < 100 nM and “A (percent of modification of PIK3CA protein ≥75%)”.
Turning to `C=CC(=O)N1CCc2c(nc(-c3nc(-c4ccc5c(c4)CCNC5)c4ccsc4c3-c3ccc(F)cc3OCCOC)n2C)C1` [Compound 99], the half-maximal inhibitory concentration (IC50) in the assay with pAKT in BT474 cells (Compounds 10-999) is < 100 nM. For the same compound, in assay [1] (setting [3]), the “% of modification” value is “A (percent of modification of PIK3CA protein ≥75%)”.
The corresponding values for `C=CC(=O)N1Cc2cc(-c3nc(-c4ccc5nn(C)cc5c4)c4ccsc4c3-c3c(F)cc(F)cc3OC)nn2C[C@H]1C` [Compound 821] are < 100 nM and “A (percent of modification of PIK3CA protein ≥75%)”.
As for `C=CC(=O)N1Cc2cc(-c3nc(-c4cnc5c(c4)CN(C)C5=O)c4ccsc4c3-c3c(F)cc(F)cc3OCCOC)nn2C[C@H]1C` [Compound 687], in the assay with pAKT in BT474 cells (Compounds 10-999), the IC50 was < 100 nM. Besides, in assay [1] (setting [3]), the “% of modification” value is “A (percent of modification of PIK3CA protein ≥75%)”.
For `C=CC(=O)N1CCn2nc(-c3nc(-c4ccc(C5(C(=O)NC6CN(C)C6)CC5)cc4)c4ccsc4c3-c3c(F)cc(F)cc3OCCOC)cc2C1C` (centres unmarked) [Compound 1157], the IC50 in the assay with pAKT in BT474 cells (Compounds 1000-1279) fell in the range of 100 to 1000 nM. In addition, the “% of modification” value in assay [1] (setting [2]) is reported as “A (percent of modification of PIK3CA protein ≥75%)”.
For the compound `C=CC(=O)N1CCC(n2cc(-c3nc(-c4cnn5c4NCCC5)c4ccsc4c3-c3ccc(F)cc3OCCOC)cn2)CC1` [Compound 68], the 50% inhibitory concentration (IC50) in the assay on pAKT in BT474 cells (Compounds 10-999) lay within 100 to 1000 nM. For the same compound, the “% of modification” value in assay [1] (setting [3]) is given as “A (percent of modification of PIK3CA protein ≥75%)”.
Taken in the same sequence, the figures for `C=CC(=O)N1CCc2nc(-c3nc(-c4ccc5c(c4)CCN(CCO)C5)c4ccsc4c3-c3ccc(F)cc3OCCOC)sc2C1` [Compound 128] were < 100 nM and “A (percent of modification of PIK3CA protein ≥75%)”.
In the case of `C=CC(=O)N1CCn2nc(-c3nc(-c4ccc(OCC5CN(C)C5)nc4)c4ccsc4c3-c3c(F)cc(F)cc3OCCOC)cc2C1C` (centres unmarked) [Compound 1201], the concentration for half-maximal inhibition (IC50) in the assay with pAKT in BT474 cells (Compounds 1000-1279) was < 100 nM. In addition, the “% of modification” value in assay [1] (setting [2]) is on record as “A (percent of modification of PIK3CA protein ≥75%)”.
`C=CC(=O)N1Cc2cc(-c3nc(-c4ccc5c(c4)CCN(C)C5)c4ccsc4c3-c3c(F)cc(F)cc3OC(C)C)nn2C(C)C1` (centres unmarked) [Compound 555]: the IC50 in the assay with pAKT in BT474 cells (Compounds 10-999) lay within 100 to 1000 nM. Moreover, in assay [1] (setting [3]), the “% of modification” value is reported as “D (percent of modification <25%)”.
The corresponding values for `C=CC(=O)N1CCc2ncc(-c3nc(-c4ccc5nn(C)cc5c4)c4ccsc4c3-c3c(F)cc(F)cc3OCCOC)cc2C1` [Compound 400] are < 100 nM and “A (percent of modification of PIK3CA protein ≥75%)”.
With `C=C(F)C(=O)N1CCn2nc(-c3nc(-c4ccc5c(c4)CNC5=O)c4ccsc4c3-c3c(F)cc(F)cc3OC(C)C)cc2C1` [Compound 341], in the assay on pAKT in BT474 cells (Compounds 10-999), the IC50 is < 100 nM. Besides, the “% of modification” value in assay [1] (setting [3]) is reported as “B (50%<percent of modification <75%)”.
Taken in the same sequence, the figures for `C=CC(=O)N1CCn2nc(-c3nc(-c4ccc5c(c4)CCNC5=O)c4ccsc4c3-c3ccc(F)cc3OCCOC)nc2C1` [Compound 184] were < 100 nM and “A (percent of modification of PIK3CA protein ≥75%)”.
